Measurements from the supplement of paper PMC10920090.

Columns and labels:
MDA-MB-231 [1] = experiment: drug sensitivity score (DSS), cytotoxicity CellTox Green; higher = more cytotoxic; extreme values may be limits of the assay; details: 72 h
MDA-MB-231 [2] = experiment: drug sensitivity score (DSS), cell viability CellTiter-Glo; higher = more sensitive; extreme values may be limits of the assay; details: 72 h
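Wherever drug sensitivity score (DSS), cytotoxicity CellTox Green is given: DSS summarises each dose–response curve by combining IC50, EC50, maximal inhibition and efficacy across drug concentrations.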

Compound	drug sensitivity score (MDA-MB-231 [1]; shRNA: shPPFIA1_1) [DSS]	drug sensitivity score (MDA-MB-231 [1]; shRNA: shScramble) [DSS]	drug sensitivity score (MDA-MB-231 [2]; shRNA: shPPFIA1_1) [DSS]	drug sensitivity score (MDA-MB-231 [2]; shRNA: shScramble) [DSS]
CCCCc1nc2cc(/C=C/C(=O)NO)ccc2n1CCN(CC)CC [Pracinostat]	8.1	8.5	10.6	11.9
COc1cc(N2CCC(N3CCN(C)CC3)CC2)ccc1Nc1ncnc(Nc2ccccc2S(=O)(=O)C(C)C)n1 [ASP3026]	0	0	0.3	3.7
Oc1ccc2c(c1)CC[C@H](c1ccccc1)[C@@H]2c1ccc(OCCN2CCCC2)cc1 [Lasofoxifene]	0	0	0	0.4
C[C@H]1Oc2cc(cnc2N)-c2c(nn(C)c2C#N)CN(C)C(=O)c2ccc(F)cc21	0	0	0	0
O=C(Nc1cc(Cl)cc2c1[nH]c1cnccc12)c1cccnc1 [PS-1145]	0	0.3	0.9	0.9
Cc1nc(=O)c2cc(CN(C)c3ccc(C(=O)N[C@@H](CCC(=O)O)C(=O)O)s3)ccc2[nH]1 [Raltitrexed]	0	0	0	0
Nc1nc(Cl)nc2c1ncn2[C@@H]1O[C@H](CO)[C@@H](O)[C@@H]1F [Clofarabine]	0	0	0	6.5
Cc1c2oc3c(C)ccc(C(=O)N[C@@H]4C(=O)N[C@H](C(C)C)C(=O)N5CCC[C@H]5C(=O)N(C)CC(=O)N(C)[C@@H](C(C)C)C(=O)O[C@@H]4C)c3nc-2c(C(=O)N[C@@H]2C(=O)N[C@H](C(C)C)C(=O)N3CCC[C@H]3C(=O)N(C)CC(=O)N(C)[C@@H](C(C)C)C(=O)O[C@@H]2C)c(N)c1=O [Dactinomycin]	14.9	12.4	14.1	25.9
N#Cc1c(Oc2ccc(F)c(NC(=O)Cc3cccc(C(F)(F)F)c3)c2)ccc2nc(NC(=O)C3CC3)sc12 [TAK-632]	17.8	5.3	1.6	8.7
Cc1ccccc1C(C(=O)NC1CCCCC1)N(C(=O)Cn1ccnc1C)c1cccc(F)c1 (stereo unspecified) [AGI-5198]	0	0	0	0
Cc1[nH]c(/C=C2\C(=O)Nc3ccccc32)c(C)c1CCC(=O)O [Orantinib]	10.8	16.2	0	0
CC(=O)[C@]1(O)Cc2c(O)c3c(c(O)c2[C@@H](O[C@H]2C[C@H](N)[C@H](O)[C@H](C)O2)C1)C(=O)c1ccccc1C3=O [Idarubicin]	6.6	7.5	6.4	10.7
Nc1ncn([C@@H]2O[C@H](CO)[C@@H](O)[C@H]2O)c(=O)n1 [Azacitidine]	0	0	0	1.1
Cc1cc(C)c(CNC(=O)c2cc(-c3ccc(CN4CCOCC4)cc3)cc3c2cnn3C2CCCC2)c(=O)[nH]1 [EPZ-5687]	0	0	3.5	0
Cc1ccc(-n2nc(C(C)(C)C)cc2NC(=O)Nc2ccc(OCCN3CCOCC3)c3ccccc23)cc1 [Doramapimod]	0	0	0	2.5
CC[C@H](C)C(=O)O[C@H]1C[C@@H](C)C=C2C=C[C@H](C)[C@H](CC[C@@H]3C[C@@H](O)CC(=O)O3)[C@H]21 [Lovastatin]	0	0	0	0
OCCn1cc(-c2cnc3nnn(Cc4ccc5ncccc5c4)c3n2)cn1	0	0	0.9	0
O=C1CN2Cc3c(ccc(Cl)c3Cl)N=C2N1 [Anagrelide]	0	0	0	0
O=c1[nH]cc(F)c(=O)[nH]1 [Fluorouracil]	0	0	0	0.6
O=C(O)CC1CC(c2ccccc2)=NO1 (stereo unspecified) [VGX-1027]	0	0	0	0
CC(=O)c1c(C)c2cnc(Nc3ccc(N4CCNCC4)cn3)nc2n(C2CCCC2)c1=O [Palbociclib]	0	0	0	2.4
Cn1cc(CNCC2CCN(c3ncc(C(=O)NO)cn3)CC2)c2ccccc21 [Quisinostat]	8.6	8.2	8.8	11.2

Compound	drug sensitivity score (MDA-MB-231 [1]; shRNA: shPPFIA1_1) [DSS]	drug sensitivity score (MDA-MB-231 [1]; shRNA: shScramble) [DSS]	drug sensitivity score (MDA-MB-231 [2]; shRNA: shPPFIA1_1) [DSS]	drug sensitivity score (MDA-MB-231 [2]; shRNA: shScramble) [DSS]
COc1cc2c(cc1O)CC[C@@H]1[C@@H]2CC[C@]2(C)[C@@H](O)CC[C@@H]12 [2-methoxyestradiol]	0	0.3	0.7	2.9
Nc1nc(N)c2nc(-c3cccc(O)c3)c(-c3cccc(O)c3)nc2n1 [TG100-115]	0	0	5.7	19
O=C(CCCCCCC(=O)Nc1ccccc1)NO [Vorinostat]	6.9	2.5	2.4	6.6
COC(=O)c1ccc2c(c1)NC(=O)/C2=C(\Nc1ccc(N(C)C(=O)CN2CCN(C)CC2)cc1)c1ccccc1 [Nintedanib]	1.1	6.7	0	8.1
CNC(=O)c1ccccc1Nc1cc(Nc2ccc(N3CCOCC3)cc2OC)ncc1C(F)(F)F [VS-4718]	0	0	0	0
Cc1ccc(-c2cc(C(F)(F)F)nn2-c2ccc(S(N)(=O)=O)cc2)cc1 [Celecoxib]	0	0	0	0
CCCC(CCC)C(=O)O [Valproic acid]	0	0	0	0
COc1cc2c(Nc3ccc(Cl)c(Cl)c3F)ncnc2cc1OC[C@@H]1C[C@@H]2CN(C)C[C@@H]2C1 [XL-647]	0	0	0	0
CC(C)NC[C@@H](C(=O)N1CCN(c2ncnc3c2[C@H](C)C[C@H]3O)CC1)c1ccc(Cl)cc1 [Ipatasertib]	0	0	3.3	3.7
CCN(CC)CCOc1ccc(C(=C(Cl)c2ccccc2)c2ccccc2)cc1 [Clomifene]	7.9	6.1	3.7	5.1
COc1ccc(-c2nc(N3CCOCC3)c3sc(CN(C)c4ncc(C(=O)NO)cn4)cc3n2)cn1 [CUDC-907]	23.5	24.5	24	28
COc1ccc(Cl)c(Nc2nc3ccccc3nc2NS(=O)(=O)c2cccc(NC(=O)C(C)(C)N)c2)c1 [Pilaralisib]	0.9	0	0	0.9
O=C(c1ccc(F)c(F)c1Nc1ccc(I)cc1F)N1CC(O)([C@@H]2CCCCN2)C1 [Cobimetinib]	4.4	12	1.6	12.8
O=P1(N(CCCl)CCCl)NCCCO1 (stereo unspecified) [Cyclophosphamide]	0	0	0	0
COc1cc(OC2CCN(C)CC2)ccc1Nc1ncc2c(n1)n(C1CCCC1)c(=O)n2C [AZ 3146]	0.7	2.7	4.7	8.7
Oc1ncnc2[nH]ncc12 [Allopurinol]	0	0	0	0
Cc1nc(NC(=O)N2CCC[C@H]2C(N)=O)sc1-c1ccnc(C(C)(C)C(F)(F)F)c1 [Alpelisib]	0	0	1.5	0
CCN(CC)CCNC(=O)c1c(C)[nH]c(/C=C2\C(=O)Nc3ccc(F)cc32)c1C [Sunitinib]	0	0	0	1.1
CN(C[C@@H]1COCCO1)S(=O)(=O)Nc1ccc2ccc3ncc(-c4cnn(C)c4)cc3c(=O)c2c1 [MK-2461]	0	0	0	3.6
C=CCNC1=C2C[C@@H](C)C[C@H](OC)[C@H](O)[C@@H](C)/C=C(\C)[C@H](OC(N)=O)[C@@H](OC)/C=C\C=C(/C)C(=O)NC(=CC1=O)C2=O [Tanespimycin]	2	3.1	6.7	12.3
CC(C)C[C@H](NC(=O)[C@H](CCc1ccccc1)NC(=O)CN1CCOCC1)C(=O)N[C@@H](Cc1ccccc1)C(=O)N[C@@H](CC(C)C)C(=O)[C@@]1(C)CO1 [Carfilzomib]	21.9	22.1	16.5	21.4
Cc1cc(-c2nc(-c3ccc(OC(F)(F)F)cc3)no2)nn1Cc1ccnc(N2CCN(C3CC3)CC2)c1 [BAY 87-2243]	0	0	14.7	13

Compound	drug sensitivity score (MDA-MB-231 [1]; shRNA: shPPFIA1_1) [DSS]	drug sensitivity score (MDA-MB-231 [1]; shRNA: shScramble) [DSS]	drug sensitivity score (MDA-MB-231 [2]; shRNA: shPPFIA1_1) [DSS]	drug sensitivity score (MDA-MB-231 [2]; shRNA: shScramble) [DSS]
CCc1c(C(=O)C(N)=O)c2c(OCC(=O)O)cccc2n1Cc1ccccc1 [Varespladib]	0	0	0	0
O=C(NOCC1CC1)c1ccc(F)c(F)c1Nc1ccc(I)cc1Cl	6.2	8.5	1.8	7.7
CCn1c(=O)c(-c2cc[nH]n2)cc2c(C)nc(N)nc21 [Voxtalisib]	0	0.2	0.8	4.3
CS(=O)(=O)N1CCc2c(-c3cnc(N)nc3)nc(N3CCOCC3)nc21	0	0	0	7.7
N#CC(c1ccnc(OCc2ccc(CN3CCOCC3)cc2)n1)c1nc2ccccc2s1 (stereo unspecified) [Bentamapimod]	0	0	1.6	3.7
CC(C)C[C@@H](C(=O)N[C@H](C(=O)OC1CCCC1)c1ccccc1)[C@H](O)C(=O)NO [Tosedostat]	12.4	7.8	4.2	2
CCNC(=O)C[C@@H]1N=C(c2ccc(Cl)cc2)c2cc(OC)ccc2-n2c(C)nnc21	0	0	0	6.2
Nc1ccccc1NC(=O)c1ccc(CNc2nccc(-c3cccnc3)n2)cc1 [Mocetinostat]	10.5	4.8	3.6	8.3
C#Cc1cccc(Nc2ncnc3cc(OC)c(OCCCCCCC(=O)NO)cc23)c1 [CUDC-101]	10.2	7.4	6.2	9.8
CC(C)[C@H]1C(=O)N[C@@H](CCCNC(=N)N)C(=O)NCC(=O)N[C@@H](CC(=O)O)C(=O)N[C@H](Cc2ccccc2)C(=O)N1C [Cilengitide]	0	0	0	0
NS(=O)(=O)NCCNc1nonc1/C(=N/O)Nc1ccc(F)c(Br)c1 [Epacadostat]	0	0	0	0
CC[C@@]1(O)C(=O)OCc2c1cc1n(c2=O)Cc2cc3ccccc3nc2-1 [Camptothecin]	2	0.7	0.8	10.4
O=C(O)c1ccc2c(c1)nc(Nc1cccc(Cl)c1)c1ccncc12 [Silmitasertib]	0	0	0	3.5
CCN1CCN(Cc2ccc(Nc3ncc(F)c(-c4cc(F)c5nc(C)n(C(C)C)c5c4)n3)nc2)CC1 [Abemaciclib]	0.9	0	0.9	0
Cc1cc(OCc2nnc(SC3CCCC3)n2-c2cccnc2)ccc1-c1ccc(S(C)(=O)=O)cc1 [NMS-873]	7.6	7.4	6.8	14.7
COc1cc(Br)c(Nc2nc(-c3c(C)nc4ncccn34)cs2)c(Br)c1 [PTC-209]	0	0	0	7.5
CC(C)Oc1ccc(C(=O)N[C@H](CNC(=O)CN(C)C)Cc2ccc(-c3cn4cccc([C@H](C)O)c4n3)cc2)cc1Cl	10.3	6.2	3.5	13.6
Nc1nc(Nc2ccc3c(c2)CC[C@@H](N2CCCC2)CC3)nn1-c1cc2c(nn1)-c1ccccc1CCC2 [BGB324]	4.4	6.1	10.6	9.5
COc1ccccc1S(=O)(=O)Nc1ccc2c(c1)CN(C)C(=O)N2 [PFI-1]	0	0	1.4	4.4
Nc1nc(F)nc2c1ncn2[C@@H]1O[C@H](CO)[C@@H](O)[C@@H]1O [Fludarabine]	0	0	0.4	2.5
